Experimental findings from publication PMC7475246, “Unravelling the effect of two herbicide resistance mutations on acetolactate synthase kinetics and growth traits” (Journal of Experimental Botany, 2020) are described below.

The experiment relates to T1, acetolactate synthase (ALS; AHAS), ALS1 and ALS2.
T1 construct: native enzyme, partially purified by ammonium sulfate precipitation from young shoots (three- to four-leaf stage); mixture of ALS1 and ALS2
As to the kind of experiment: in vitro ALS activity, colorimetric acetoin assay at […] nm. The class given is biochemical, Alopecurus aequalis. To be noted: 37 °C, 60 min; pH 7.5 HEPES, MgCl2, thiamine pyrophosphate, FAD; extract buffer with 200 mM pyruvate mixed 1:1 with MM; mean of three susceptible populations; read-out: I50.

As for `COC(=O)c1ccc(CNS(C)(=O)=O)cc1S(=O)(=O)NC(=O)Nc1nc(OC)cc(OC)n1` [MM, mesosulfuron-methyl], the IC50 is 35.5 nM.
